Reference: patent US8124766B2, “Inhibitors of diacylglycerol acyltransferase” (Madrigal Pharmaceuticals, Inc., priority 2008, dated 2012)
Counter-ions that a name gives are not always drawn.

Test system: DGAT
Assay: DGAT Phospholipid FlashPlate Assay
Format: biochemical
Settings: DGAT pellet, DAG-coated PL-FlashPlate, 14C-Pal-CoA, 37° C. for 1 hour; read-out: DGAT Inhibition Activity IC50
Protocol: DGAT Phospholipid FlashPlate Assay
Materials for the assay were: PL-FlashPlate: Phospholipid FlashPlates from PerkinElmer, catalog number SMP108; DAG (1,2-Dioleoyl-sn-glycerol) 10 mM suspended in water containing 0.1% Triton X-100; ^14C-Pal-CoA (palmitoyl coenzyme A, [palmitoyl-1-^14C]) from PerkinElmer, catalog number NEC-555 with a specific activity of 55 mCi/mmol; and DGAT pellet, with a protein concentration of 9.85 mg/ml.
Aqueous buffers were prepared or purchased as follows: The coating buffer (CB) was purchased from PerkinElmer, catalog number SMP900A; the reaction buffer (RB) was 50 mM Tris-HCl, pH 7.5, 100 mM NaCl, 0.01% BSA in water; the washing buffer (WB) is 50 mM Tris-HCl, pH 7.5, 100 mM NaCl, 0.05% deoxycholic acid sodium salt in water; the dilution buffer (DB) was 50 mM Tris-HCl, pH 7.5, 100 mM NaCl, 1 mM EDTA, 0.2% Triton X-100 in water.
1,2-Dioleoyl-sn-glycerol (DAG, 10 mmoles) was diluted to 500 μM with coating buffer (CB). The diluted DAG solution was then added to 384-well PL-FlashPlates at 60 μl per well, and incubated at room temperature for 2 days. The coated plates were then washed twice with washing buffer (WB) before use. Test compounds were serial diluted to 2000, 666.7, 222.2, 74.1, 24.7, 8.2, 2.7 and 0.9 μM in 100% DMSO. Diluted compound were further diluted 10 fold with reaction buffer (RB). ^14C-Pal-CoA was diluted to 8.3 μM with RB. The DGAT pellet was diluted to 0.13 mg protein/ml with dilution buffer (DB) immediately before it was added to the PL-FlashPlates to start the reaction. 20 μl of the RB-diluted compounds (or 10% DMSO in RB for Total and Blank), 15 μl of RB diluted 14C-Pal-CoA and 15 μl of DB diluted DGAT pellet (DB without DGAT for Blanks) were transferred to each well of the PL-FlashPlates. The reaction mixtures were incubated at 37° C. for 1 hour. The reactions were stopped by washing 3 times with WB. Plates were sealed with Top-seal and read on a Topcount instrument.
Calculation of IC50: The IC50 values for each compound were generated using an Excel template. The Topcount rpm readings of Total and Blank were used as 0% and 100% inhibition. The percent inhibition values of reactions in the presence of compounds were calculated, and plotted against compound concentrations. All data were fitted into a Dose Response One Site model (4 parameter logistic model) as the following: (A+((B−A)/(1+((x/C)^D)))), with A and B as the bottom and top of the curve (highest and lowest inhibition), respectively, and C as IC50 and D as Hill Coefficient of the compound.

Row | IC50 | Structure (SMILES)
1 | 433 nM | CCn1c(C(=O)Nc2ccc(N3CCN(C(=O)OC(C)(C)C)CC3)nc2)cc2c(C(F)(F)F)cccc21 [Example 14, 4-{5-[(1-Ethyl-4-trifluoromethyl-1H-indole-2-carbonyl)-amino]-pyridin-2-yl}-piperazine-1-carboxylic acid tert-butyl ester]
2 | 183 nM | CCn1c(C(=O)Nc2ccc(N3CCN(C(=O)CC(C)(C)C(=O)O)CC3)nc2)cc2c(C(F)(F)F)cccc21 [Example 15, 4-(4-{5-[(1-Ethyl-4-trifluoromethyl-1H-indole-2-carbonyl)-amino]-pyridin-2-yl}-piperazin-1-yl)-2,2-dimethyl-4-oxo-butyric acid]
3 | 248 nM | CCn1c(C(=O)Nc2ccc(N3CCN(C(=O)OC(C)(C)C)CC3)nc2)cc2c(OC)cc(OC)cc21 [Example 16, 4-{5-[(1-Ethyl-4,6-dimethoxy-1H-indole-2-carbonyl)-amino]-pyridin-2-yl}-piperazine-1-carboxylic acid tert-butyl ester]
4 | 270 nM | CCn1c(C(=O)Nc2ccc(N3CCN(C(=O)CC(C)(C)C(=O)O)CC3)nc2)cc2c(OC)cc(OC)cc21 [Example 17, 4-(4-{5-[(1-Ethyl-4,6-dimethoxy-1H-indole-2-carbonyl)-amino]-pyridin-2-yl}-piperazin-1-yl)-2,2-dimethyl-4-oxo-butyric acid]
5 | 255 nM | CCn1c(C(=O)Nc2ccc(N3CCN(C(=O)OC(C)(C)C)CC3)nc2)cc2c(Cl)c(Cl)ccc21 [Example 18, 4-{5-[(4,5-Dichloro-1-ethyl-1H-indole-2-carbonyl)-amino]-pyridin-2-yl}-piperazine-1-carboxylic acid tert-butyl ester]
6 | 80 nM | CCn1c(C(=O)Nc2ccc(N3CCN(C(=O)CC(C)(C)C(=O)O)CC3)nc2)cc2c(Cl)c(Cl)ccc21 [Example 19, 4-(4-{5-[(4,5-Dichloro-1-ethyl-1H-indole-2-carbonyl)-amino]-pyridin-2-yl}-piperazin-1-yl)-2,2-dimethyl-4-oxo-butyric acid]
7 | 84 nM | CCn1c(C(=O)Nc2ccc(N3CCN(C(=O)OC(C)(C)C)CC3)nc2)cc2c(OC)cccc21 [Example 20, 4-{5-[(1-Ethyl-4-methoxy-1H-indole-2-carbonyl)-amino]-pyridin-2-yl}-piperazine-1-carboxylic acid tert-butyl ester]
8 | 282 nM | CCOC(=O)N1CCN(c2ccc(NC(=O)c3cc4c(OC)cccc4n3CC)cn2)CC1 [Example 21, 4-{5-[(1-Ethyl-4-methoxy-1H-indole-2-carbonyl)-amino]-pyridin-2-yl}-piperazine-1-carboxylic acid ethyl ester]
9 | 86 nM | CCn1c(C(=O)Nc2ccc(N3CCN(C(=O)OC(C)(C)C)CC3)nc2)cc2c(OC)c(OC)ccc21 [Example 22, 4-{5-[(1-Ethyl-4,5-dimethoxy-1H-indole-2-carbonyl)-amino]-pyridin-2-yl}-piperazine-1-carboxylic acid tert-butyl ester]
10 | 571 nM | CCn1c(C(=O)Nc2ccc(N3CCN(C(=O)OC(C)(C)C)CC3)nc2)cc2cc(Cl)ccc21 [Example 23, 4-{5-[(5-Chloro-1-ethyl-1H-indole-2-carbonyl)-amino]-pyridin-2-yl}-piperazine-1-carboxylic acid tert-butyl ester]
11 | 512 nM | CC(C)(C)OC(=O)N1CCN(c2ccc(NC(=O)c3cc4c(Cl)cccc4s3)cc2)CC1 [Example 24, 4-{4-[(4-Chloro-benzo[b]thiophene-2-carbonyl)-amino]-phenyl}-piperazine-1-carboxylic acid tert-butyl ester]
12 | 127 nM | CC(C)(CC(=O)N1CCC(c2ccc(NC(=O)c3cc4c(Cl)cccc4s3)cc2)CC1)C(=O)O [Example 25, 4-(4-{4-[(4-Chloro-benzo[b]thiophene-2-carbonyl)-amino]-phenyl}-piperidin-1-yl)-2,2-dimethyl-4-oxo-butyric acid]
13 | 145 nM | CC(C)(CC(=O)N1CCN(c2ccc(NC(=O)c3cc4c(Cl)cccc4s3)cc2)CC1)C(=O)O [Example 26, 4-(4-{4-[(4-Chloro-benzo[b]thiophene-2-carbonyl)-amino]-phenyl}-piperazin-1-yl)-2,2-dimethyl-4-oxo-butyric acid]
14 | 826 nM | CCn1c(C(=O)Nc2ccc(N3CCN(C(=O)[C@H]4CC[C@H](C(=O)OCc5ccccc5)CC4)CC3)nc2)cc2c(OC)cccc21 [Example 27, trans-4-(4-{5-[(1-Ethyl-4-methoxy-1H-indole-2-carbonyl)-amino]-pyridin-2-yl}-piperazine-1-carbonyl)-cyclohexanecarboxylic acid benzyl ester]
15 | 385 nM | CCn1c(C(=O)Nc2ccc(N3CCN(C(=O)[C@H]4CC[C@H](C(=O)O)CC4)CC3)nc2)cc2c(OC)cccc21 [Example 28, trans-4-(4-{5-[(1-Ethyl-4-methoxy-1H-indole-2-carbonyl)-amino]-pyridin-2-yl}-piperazine-1-carbonyl)-cyclohexanecarboxylic acid]
16 | 980 nM | CCOc1cccc2c1cc(C(=O)Nc1ccc(N3CCN(C(=O)[C@H]4CC[C@H](C(=O)O)CC4)CC3)cc1)n2CC [Example 29, trans-4-(4-{4-[(4-Ethoxy-1-ethyl-1H-indole-2-carbonyl)-amino]-phenyl}-piperazine-1-carbonyl)-cyclohexanecarboxylic acid]
17 | 824 nM | CCn1c(C(=O)Nc2ccc(C3CCN(C(=O)[C@H]4CC[C@H](C(=O)O)CC4)CC3)cc2)cc2c(C)cccc21 [Example 30, trans-4-(4-{4-[(1-Ethyl-4-methyl-1H-indole-2-carbonyl)-amino]-phenyl}-piperidine-1-carbonyl)-trans-1,4-cyclohexanecarboxylic acid]
18 | 380 nM | CCOc1cccc2c1cc(C(=O)Nc1ccc(N3CCN(C(=O)[C@@H]4CCC[C@H]4C(=O)O)CC3)cc1)n2CC [Example 31, (1R,2R)-2-(4-{4-[(4-Ethoxy-1-ethyl-1H-indole-2-carbonyl)-amino]-phenyl}-piperazine-1-carbonyl)-cyclopentanecarboxylic acid]
19 | 495 nM | CCOc1cccc2c1cc(C(=O)Nc1ccc(C3CCN(C(=O)[C@@H]4CCC[C@H]4C(=O)O)CC3)cc1)n2CC [Example 32, (1R,2R)-2-(4-{4-[(4-Ethoxy-1-ethyl-1,1-indole-2-carbonyl)-amino]-phenyl}-piperidine-1-carbonyl)-cyclopentanecarboxylic acid]
20 | 662 nM | CCn1c(C(=O)Nc2ccc(N(C)CCOC)nc2)cc2cc(OC(F)(F)F)ccc21 [Example 33, 1-Ethyl-5-trifluoromethoxy-1H-indole-2-carboxylic acid {6-[(2-methoxy-ethyl)-methyl-amino]-pyridin-3-yl}-amide hydrochloride]
21 | 683 nM | COCCN(C)c1ccc(NC(=O)c2cc3ccccc3s2)cn1 [Example 34, Benzo[b]thiophene-2-carboxylic acid {6-[(2-methoxy-ethyl)-methyl-amino]-pyridin-3-yl}-amide]
22 | 351 nM | COCCN(C)c1ccc(NC(=O)c2sc3ccccc3c2C)cn1 [Example 35, 3-Methyl-benzo[b]thiophene-2-carboxylic acid {6-[(2-methoxy-ethyl)-methyl-amino]-pyridin-3-yl}-amide hydrochloride]
23 | 856 nM | COCCN(C)c1ncc(NC(=O)c2sc3ccccc3c2C)cn1 [Example 36, 3-Methyl-benzo[b]thiophene-2-carboxylic acid {2-[(2-methoxy-ethyl)-methyl-amino]-pyrimidin-5-yl}-amide hydrochloride]
